Measured values as given in BindingDB's records for patent US11691963 (Ajax Therapeutics, 2023).

Molecular target: Tyrosine-protein kinase JAK2 [Y1007F,Y1008F] (Homo sapiens, UniProt O60674, Y1007F/Y1008F)
Assay: JAK2 Binding Assay
Method: Streptavidin-coated magnetic beads were treated with biotinylated small molecule ligands for 30 minutes at room temperature to generate affinity resins for kinase assays. The liganded beads were blocked with excess biotin and washed with blocking buffer (SeaBlock (Pierce), 1% BSA, 0.05% Tween 20, 1 mmol/L DTT) to remove unbound ligand and to reduce nonspecific phage binding. Binding reactions were assembled by combining kinases, liganded affinity beads, and test compounds in 1× binding buffer (1×PBS, 0.05% Tween 20, 0.1% BSA, 1 mmol/L DTT). Test compound was prepared as 111× stocks in 100% DMSO and directly diluted into the assay wells. All reactions were performed in polypropylene 384-well plates in a final volume of 0.02 mL. The assay plates were incubated at room temperature with shaking for 1 hour and the affinity beads were washed with wash buffer (1×PBS, 0.05% Tween 20). The beads were then re-suspended in elution buffer (1×PBS, 0.05% Tween 20, 0.5 μmol/L non-biotinylated affinity ligand) and incubated at room temperature with shaking for 30 minutes. The kinase concentration in the eluate was measured by qPCR.

Sequence of Tyrosine-protein kinase JAK2 [Y1007F,Y1008F] (O60674 whole entry Y1007F/Y1008F): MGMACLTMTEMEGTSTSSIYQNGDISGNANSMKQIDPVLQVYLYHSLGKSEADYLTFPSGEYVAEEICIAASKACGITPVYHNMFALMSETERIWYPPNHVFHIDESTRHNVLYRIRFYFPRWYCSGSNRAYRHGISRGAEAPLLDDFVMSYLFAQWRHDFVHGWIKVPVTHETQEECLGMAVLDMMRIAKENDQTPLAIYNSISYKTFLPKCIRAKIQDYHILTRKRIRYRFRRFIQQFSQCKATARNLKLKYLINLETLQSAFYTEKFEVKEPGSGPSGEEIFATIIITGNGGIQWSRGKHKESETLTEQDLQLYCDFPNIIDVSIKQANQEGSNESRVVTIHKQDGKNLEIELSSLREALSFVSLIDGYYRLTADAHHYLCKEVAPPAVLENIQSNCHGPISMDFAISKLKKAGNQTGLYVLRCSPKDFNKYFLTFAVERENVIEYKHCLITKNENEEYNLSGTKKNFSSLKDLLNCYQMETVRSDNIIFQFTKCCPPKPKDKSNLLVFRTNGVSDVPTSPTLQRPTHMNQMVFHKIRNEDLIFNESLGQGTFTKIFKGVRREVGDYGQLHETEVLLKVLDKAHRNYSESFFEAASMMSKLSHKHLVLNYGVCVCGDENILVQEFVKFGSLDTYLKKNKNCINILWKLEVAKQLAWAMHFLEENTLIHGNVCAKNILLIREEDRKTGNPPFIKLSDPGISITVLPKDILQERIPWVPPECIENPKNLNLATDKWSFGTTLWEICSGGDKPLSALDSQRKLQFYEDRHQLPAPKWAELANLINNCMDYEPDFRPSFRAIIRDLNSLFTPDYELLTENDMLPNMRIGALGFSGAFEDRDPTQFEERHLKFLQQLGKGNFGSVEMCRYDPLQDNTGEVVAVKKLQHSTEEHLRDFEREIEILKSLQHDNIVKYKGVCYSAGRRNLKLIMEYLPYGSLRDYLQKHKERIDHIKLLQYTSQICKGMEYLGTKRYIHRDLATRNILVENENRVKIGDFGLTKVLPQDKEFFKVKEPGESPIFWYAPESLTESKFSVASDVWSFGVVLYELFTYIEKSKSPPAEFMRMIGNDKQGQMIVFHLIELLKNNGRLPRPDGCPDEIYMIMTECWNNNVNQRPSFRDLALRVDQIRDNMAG

Kd | SMILES
< 10 nM | CC(=O)Nc1cc(Oc2ccc3nc(Nc4cc(C(C)(C)C)n(C[C@H]5C[C@@H](O)C5)n4)n(C)c3c2)ccn1 [US11691963, Example I-28]
< 10 nM | CC(=O)Nc1cc(Oc2ccc3nc(Nc4cc5n(n4)CCCC5(C)C)n(C)c3n2)ccn1 [US11691963, Example I-42]
< 10 nM | CC(=O)Nc1cc(Oc2cnc3nc(Nc4cc(C(C)(C)C)n([C@H]5C[C@H](O)C5)n4)n(C)c3c2)ccn1 [US11691963, Example I-115]
< 10 nM | CC(=O)Nc1cc(Oc2cnc3nc(Nc4cc(C(C)(C)C)n([C@H]5C[C@@H](O)C5)n4)n(C)c3c2)ccn1 [US11691963, Example I-116]
